Experiments:
Assay in all cases: normalised viability (% of control), CellTiter-Blue; higher = more viable cells (about 100 = DMSO control)
Conditions in all cases: incubation time: 72 h
HCC1599 = tested on: HCC1599
How it was run: (§1)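 Compound dissolved in 5 µl medium was pre-loaded into 384-well plates, and breast cancer cell lines in 20 µl suspension were seeded on top and incubated 72 h. After adding 2.5 µl CellTiter-Blue reagent for 2 h at 37 °C, fluorescence was read at 560/590 nm. Plates were normalised to vehicle (100) and a positive kill control (0), with Z'-factor quality control. Each value is normalised viability at a single listed concentration from the series.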

CAL-85-1 = tested on: CAL-85-1
How it was run: as §1

HCC1143 = tested on: HCC1143
How it was run: as §1

MFM-223 = tested on: MFM-223
How it was run: as §1

BT-549 = tested on: BT-549
How it was run: as §1

CAL-120 = tested on: CAL-120
How it was run: as §1

CAL-51 = tested on: CAL-51
How it was run: as §1

SK-BR-3 = tested on: SK-BR-3
How it was run: as §1

MDA-MB-231 = tested on: MDA-MB-231
How it was run: as §1

CAL-148 = tested on: CAL-148
How it was run: as §1

HDQ-P1 = tested on: HDQ-P1
How it was run: as §1

Hs578T = tested on: Hs578T
How it was run: as §1

MDA-MB-453 = tested on: MDA-MB-453
How it was run: as §1

MDA-MB-436 = tested on: MDA-MB-436
How it was run: as §1

BT-474 = tested on: BT-474
How it was run: as §1

HCC1937 = tested on: HCC1937
How it was run: as §1

DU-4475 = tested on: DU-4475
How it was run: as §1

CC(=O)c1c(C)c2cnc(Nc3ccc(N4CCNCC4)cn3)nc2n(C2CCCC2)c1=O
normalised viability [%]
Conditions	3 nM	10 nM	30 nM	100 nM	1000 nM	10000 nM
BT-474	–	108	–	–	105	67
BT-549	–	101	–	–	109	85.2
CAL-51	106	–	99.8	93.7	–	–
CAL-85-1	96.2	–	102	91.4	–	–
CAL-120	–	79.4	–	–	65.2	57.4
CAL-148	91	–	89.4	93.6	–	–
DU-4475	104	–	99.7	105	–	–
HCC1143	–	74.2	–	–	73.5	61.8
HCC1599	–	93.3	–	–	109	89.3
HCC1937	–	38.9	–	–	102	67.9
HDQ-P1	95.2	–	99.9	99.5	–	–
Hs578T	–	100	–	–	83.9	71.5
MDA-MB-231	–	97.6	–	–	57.7	41.2
MDA-MB-436	–	78.1	–	–	36.7	89.8
MDA-MB-453	112	–	104	79.1	–	–
MFM-223	–	77.5	–	–	79.3	74
SK-BR-3	–	100	–	–	110	63.5

Cn1cnc2c(F)c(Nc3ccc(Br)cc3Cl)c(C(=O)NOCCO)cc21 [Selumetinib]
normalised viability [%]
Conditions	3 nM	10 nM	30 nM	100 nM	1000 nM	10000 nM
BT-474	–	104	–	–	105	104
BT-549	–	109	–	–	101	95.3
CAL-51	116	–	102	96.3	–	–
CAL-85-1	88.1	–	93.6	100	–	–
CAL-120	–	78.8	–	–	78.6	63.3
CAL-148	91	–	87.9	88.9	–	–
DU-4475	95.1	–	72.5	43.7	–	–
HCC1143	–	79.7	–	–	58.2	49.7
HCC1599	–	112	–	–	78.3	76.3
HCC1937	–	65.3	–	–	83.8	68.6
HDQ-P1	92.4	–	107	92.6	–	–
Hs578T	–	90.8	–	–	89.8	76.2
MDA-MB-231	–	90.3	–	–	49.5	30
MDA-MB-436	–	113	–	–	59.8	101
MDA-MB-453	122	–	105	110	–	–
MFM-223	–	86.2	–	–	89.7	73.1
SK-BR-3	–	98.7	–	–	114	93.6

CC[C@@H]1C(=O)OC[C@@H]1Cc1cncn1C [Pilocarpine]
normalised viability [%]
Conditions	12 nM	40 nM	120 nM	400 nM	4000 nM	40000 nM
BT-474	–	108	–	–	158	116
BT-549	–	95.5	–	–	114	100
CAL-51	110	–	103	98.2	–	–
CAL-85-1	98.1	–	98.3	101	–	–
CAL-120	–	85.2	–	–	107	113
CAL-148	95.5	–	101	104	–	–
DU-4475	103	–	92.1	107	–	–
HCC1143	–	87.5	–	–	90.3	88.4
HCC1599	–	104	–	–	92.2	92.8
HCC1937	–	109	–	–	107	97.4
HDQ-P1	123	–	137	118	–	–
Hs578T	–	101	–	–	102	108
MDA-MB-231	–	94.9	–	–	116	118
MDA-MB-436	–	95.6	–	–	95	104
MDA-MB-453	118	–	93.5	100	–	–
MFM-223	–	96.4	–	–	90.7	63.7
SK-BR-3	–	106	–	–	115	136

From the supplement of paper PMC4862054
